How the values were obtained:
Aβ42 [1] = assay: HEK assay: Aβ42 secreted to cell medium, Meso Scale Discovery electrochemiluminescence; format: cell-based; details: Homo sapiens, HEK293; HEK cell line stably expressing APPswe; 4-6 hours incubation with test compound; read-out: pIC50 Aβ42 HEK assay (converted)
Description: Compounds were diluted in 100% DMSO and stored at […] prior to use. Human Embryonic Kidney (HEK) cell line stably expressing APP with the Swedish mutation (APPswe) was cultured using Dulbecco's Modified Eagles medium (DMEM) supplied with […] glucose, Na-pyruvate and GlutaMAX, 10% Foetal bovine serum, 100 U/mL penicillin-streptomycin (PEST), 1× non-essential amino acids (NEAA), […] Hepes, 100 μg/mL Zeocine. Cells at about 80% confluence were washed with PBS, detached from culture flasks using 1× Trypsin/EDTA diluted in PBS, re-suspended in cell media and plated in 384-well poly-d-lysine coated cell culture plates at about 10000-15000 cells/well, in 25 μL cell media. Optionally, cryo-preserved cells (frozen and stored at −140° C. in 90% cell media and 10% DMSO) were thawed, washed and plated as above. Next the cells were incubated for 15-24 h at 37° C. and 5% CO2, after which cell medium was changed. Fresh medium containing test compound diluted ×200 from prepared compound plate was added to the cells before further incubation for 4-6 hours at 37° C. and 5% CO2. After incubation with test compound the amount of Aβ peptides, including Aβ42, Aβ40, Aβ39, Aβ38 and Aβ37, secreted to cell medium was analyzed using the electrochemiluminescence assay technology from Meso Scale Discovery Technology, in combination with specific antibodies raised against the different Aβ peptides. Potential cytotoxic effects of the compounds were assayed by measuring the ATP content (ViaLight) from cell lysate.

Aβ42 [2] = assay: PCN assay: Aβ42 secreted by primary cortical neuronal cells, ELISA; format: cell-based; details: primary cortical neuronal cells from 16-day mouse embryos; 16-20 hours incubation with test compound; read-out: pIC50 Aβ42 PCN assay (converted)
Description: Compounds were diluted in 100% DMSO and stored at […] prior to use. Primary cortical neuronal cells (PCN) were isolated from 16-day mouse embryos and cultured in Ham's F12 media containing 10% Foetal bovine serum, 10 mM Hepes, 2 mM L-glutamine and 100 U/mL Penicillin-Streptomycin. 150000-250000 cells/well, in 200 μL cell media were seeded onto 96-well poly-D-Lysine coated plates. After incubation at 37° C., 5% CO2 for five days, the media was exchanged for fresh medium containing test compound diluted ×100, before further incubation for 16-20 hours at 37° C. and 5% CO2. After incubation with test compound the amount of […] secreted to cell medium was analyzed using the solid phase sandwich Enzyme-Linked-Immuno-Sorbent Assay (ELISA)-kit from Invitrogen for detection of mouse βAmyloid 1-42. Potential cytotoxic effects of the compounds were assayed by measuring the ATP content (Via Light) from cell lysate.

Row | IC50 (Aβ42 [1]) [nM] | Compound | IC50 (Aβ42 [2]) [nM]
1 | 20 | COc1cc(Nc2nc(COCC3CC3)cc(N3CCC3)n2)ccc1-n1cnc(C)c1 [Example 1, 4-(Azetidin-1-yl)-6-((cyclopropylmethoxy)methyl)-N-(3-methoxy-4-(4-methyl-1H-imidazol-1-yl)phenyl)pyrimidin-2-amine] | 50.1
2 | 31.6 | CNc1cc(COCC(F)(F)F)nc(Nc2ccc(-n3cnc(C)c3)cc2)n1 [Example 2, N^4-Methyl-N^2-(4-(4-methyl-1H-imidazol-1-yl)phenyl)-6-((2,2,2-trifluoroethoxy)methyl)-pyrimidine-2,4-diamine] | 63.1
3 | 25.1 | COc1cc(Nc2nc(CC#N)cc(COCC(F)(F)F)n2)ccc1-n1cnc(C)c1 [Example 3, 2-[2-[3-Methoxy-4-(4-methylimidazol-1-yl)anilino]-6-(2,2,2-trifluoroethoxymethyl)pyrimidin-4-yl]acetonitrile] | 39.8
4 | 25.1 | CNc1nc(Nc2ccc(-n3cnc(C)c3)c(OC)c2)nc(COCC(F)(F)F)c1C [Example 4, N^2-(3-Methoxy-4-(4-methyl-1H-imidazol-1-yl)phenyl)-N^4,5-dimethyl-6-((2,2,2-trifluoroethoxy)methyl)pyrimidine-2,4-diamine] | 10
5 | 20 | COc1cc(Nc2nc(COCC(F)(F)F)c(C)c(C(C)(C)O)n2)ccc1-n1cnc(C)c1 [Example 5, 2-(2-(3-Methoxy-4-(4-methyl-1H-imidazol-1-yl)phenylamino)-5-methyl-6-((2,2,2-trifluoroethoxy)methyl)pyrimidin-4-yl)propan-2-ol] | 20
6 | 31.6 | COc1cc(Nc2nc(COCC(F)(F)F)c(C)c(C(C)O)n2)ccc1-n1cnc(C)c1 (stereo not drawn) [Example 6, 1-(2-(3-Methoxy-4-(4-methyl-1H-imidazol-1-yl)phenylamino)-5-methyl-6-((2,2,2-trifluoroethoxy)methyl)pyrimidin-4-yl)ethanol] | 31.6
7 | 31.6 | COc1cc(Nc2nc(C(C)O)cc(C(C)OCC(F)(F)F)n2)ccc1-n1cnc(C)c1 (stereo not drawn) [Example 7, 1-(2-(3-Methoxy-4-(4-methyl-1H-imidazol-1-yl)phenylamino)-6-(1-(2,2,2-trifluoroethoxy)-ethyl)pyrimidin-4-yl)ethanol] | 31.6
8 | 31.6 | COc1cc(Nc2nc(COCC(F)(F)F)cc(NC(C)C)n2)ccc1-n1cnc(C)c1 [Example 8, N^4-Isopropyl-N^2-(3-methoxy-4-(4-methyl-1H-imidazol-1-yl)phenyl)-6-((2,2,2-trifluoroethoxy)methyl)pyrimidine-2,4-diamine] | 20
9 | 25.1 | CNc1cc(COCC(F)(F)F)nc(Nc2ccc(-n3cnc(C)c3)c(OC)c2)n1 [Example 9, N^2-(3-Methoxy-4-(4-methyl-1H-imidazol-1-yl)phenyl)-N4-methyl-6-((2,2,2-trifluoroethoxy)methyl)pyrimidine-2,4-diamine] | 31.6
10 |  | COc1cc(Nc2nc(COCC(F)(F)F)cc(C(O)C(C)C)n2)ccc1-n1cnc(C)c1 (stereo not drawn) [Example 14, 1-(2-(3-Methoxy-4-(4-methyl-1H-imidazol-1-yl)phenylamino)-6-((2,2,2-trifluoroethoxy)methyl)pyrimidin-4-yl)-2-methylpropan-1-ol] | 39.8
11 | 200 | COc1cc(Nc2nc(COCC3CC(F)(F)C3)cc(C(C)(C)O)n2)ccc1-c1cnnc(C)c1 [Example 19, 2-(6-(((3,3-Difluorocyclobutyl)methoxy)methyl)-2-(3-methoxy-4-(6-methylpyridazin-4-yl)phenylamino)pyrimidin-4-yl)propan-2-ol] | 
12 | 158 | COc1cc(Nc2nc(COCC(F)(F)F)cc(CN(C)C)n2)ccc1-n1cnc(C)c1 [Example 41, 4-((Dimethylamino)methyl)-N-(3-methoxy-4-(4-methyl-1H-imidazol-1-yl)phenyl)-6-((2,2,2-trifluoroethoxy)methyl)pyrimidin-2-amine] | 

Reference: patent US9439904B2, “Pyrimidine compounds and their use as gamma secretase modulators” (Acturum Life Science AB, priority 2013, dated 2016)
